According to PubChem BioAssay AID2060890 (Molecular Pharmacology Branch, DTP, NCI, 2025):

Tested on: LG0703-F948-PDC complex spheroid viability
Assay: Anticancer human tumor LG0703-F948-PDC patient-derived lung adenocarcinoma cell line growth inhibition [RAS]
Details: for IC50: curve of first compound; for viability, T/C: stronger effect = lower value
Method in brief: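 Agents were tested in combination matrices in half-log decrements from a top concentration at or near clinical Cmax (10 microM if undetermined). Targets were multi-cell spheroids of tumour lines plus HUVEC and MSC stromal cells.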

[1] = second compound 0.0316 µM, first compound 0.0316 µM
[2] = second compound 0.0316 µM, first compound 0.1 µM
[3] = second compound 0.1 µM, first compound 0.0316 µM
[4] = second compound 0.1 µM, first compound 0.1 µM
[5] = second compound 0.316 µM, first compound 0.0316 µM
[6] = second compound 0.316 µM, first compound 0.1 µM
[7] = second compound 1 µM, first compound 0.0316 µM
[8] = second compound 1 µM, first compound 0.1 µM
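Note: spheroids exposed to agents for 7 days.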
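Throughout, for viability, T/C: 100% = DMSO vehicle wells.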

CC1(O)CCCC1n1c(=O)c(C(F)F)cc2cnc(NC3CCN(S(C)(=O)=O)CC3)nc21 (centres undefined) + C=CC(=O)N1CCN(c2nc(OCC3CCCN3C)nc3c(F)c(-c4nc(N)cc(C)c4C(F)(F)F)c(Cl)cc23)C(C)C1
IC50 (second compound 0.00316 µM): 4.29 µM | IC50 (second compound 0.01 µM): 4.16 µM | IC50 (second compound 0.0316 µM): 4.67 µM | IC50 (second compound 0.1 µM): 4.25 µM | IC50 (second compound 0.316 µM): 4.34 µM | IC50 (second compound 1 µM): 4.13 µM | viability, T/C (second compound 0.00316 µM, first compound 0.0316 µM): 96.7% | viability, T/C (second compound 0.00316 µM, first compound 0.1 µM): 91.2% | viability, T/C (second compound 0.00316 µM, first compound 0.316 µM): 86.1% | viability, T/C (second compound 0.00316 µM, first compound 1 µM): 76.8% | viability, T/C (second compound 0.00316 µM, first compound 3.16 µM): 66.9% | viability, T/C (second compound 0.00316 µM, first compound 10 µM): 14.1% | viability, T/C (second compound 0.01 µM, first compound 0.0316 µM): 103% | viability, T/C (second compound 0.01 µM, first compound 0.1 µM): 103% | viability, T/C (second compound 0.01 µM, first compound 0.316 µM): 90.1% | viability, T/C (second compound 0.01 µM, first compound 1 µM): 72.9% | viability, T/C (second compound 0.01 µM, first compound 3.16 µM): 69% | viability, T/C (second compound 0.01 µM, first compound 10 µM): 15.8% | viability, T/C [1]: 97.8% | viability, T/C [2]: 104% | viability, T/C (second compound 0.0316 µM, first compound 0.316 µM): 85.9% | viability, T/C (second compound 0.0316 µM, first compound 1 µM): 76.7% | viability, T/C (second compound 0.0316 µM, first compound 3.16 µM): 75.5% | viability, T/C (second compound 0.0316 µM, first compound 10 µM): 14.7% | viability, T/C [3]: 107% | viability, T/C [4]: 104% | viability, T/C (second compound 0.1 µM, first compound 0.316 µM): 88% | viability, T/C (second compound 0.1 µM, first compound 1 µM): 75.2% | viability, T/C (second compound 0.1 µM, first compound 3.16 µM): 73.9% | viability, T/C (second compound 0.1 µM, first compound 10 µM): 10.9% | viability, T/C [5]: 106% | viability, T/C [6]: 89.5% | viability, T/C (second compound 0.316 µM, first compound 0.316 µM): 94.9% | viability, T/C (second compound 0.316 µM, first compound 1 µM): 75.7% | viability, T/C (second compound 0.316 µM, first compound 3.16 µM): 72% | viability, T/C (second compound 0.316 µM, first compound 10 µM): 9.28% | viability, T/C [7]: 115% | viability, T/C [8]: 105% | viability, T/C (second compound 1 µM, first compound 0.316 µM): 92.5% | viability, T/C (second compound 1 µM, first compound 1 µM): 76.4% | viability, T/C (second compound 1 µM, first compound 3.16 µM): 74.9% | viability, T/C (second compound 1 µM, first compound 10 µM): 6.44%

CC(C)n1nc(-c2ccc3oc(N)nc3c2)c2c(N)ncnc21 + C#Cc1c(F)ccc2cc(O)cc(-c3ncc4c(N5CC6CCC(C5)N6)nc(OCC56CCCN5CC(F)C6)nc4c3F)c12
IC50 (second compound 0.0316 µM): 0.00471 µM | IC50 (second compound 0.1 µM): 0.00396 µM | IC50 (second compound 0.316 µM): 0.00399 µM | IC50 (second compound 1 µM): 0.00213 µM | IC50 (second compound 3.16 µM): 0.000608 µM | IC50 (second compound 10 µM): 0.000343 µM | viability, T/C (second compound 0.0316 µM, first compound 0.000316 µM): 90.7% | viability, T/C (second compound 0.0316 µM, first compound 0.001 µM): 82.5% | viability, T/C (second compound 0.0316 µM, first compound 0.00316 µM): 59.2% | viability, T/C (second compound 0.0316 µM, first compound 0.01 µM): 32% | viability, T/C [1]: 18% | viability, T/C [2]: 12.3% | viability, T/C (second compound 0.1 µM, first compound 0.000316 µM): 80.7% | viability, T/C (second compound 0.1 µM, first compound 0.001 µM): 85.6% | viability, T/C (second compound 0.1 µM, first compound 0.00316 µM): 47.7% | viability, T/C (second compound 0.1 µM, first compound 0.01 µM): 34% | viability, T/C [3]: 19.7% | viability, T/C [4]: 11% | viability, T/C (second compound 0.316 µM, first compound 0.000316 µM): 88.3% | viability, T/C (second compound 0.316 µM, first compound 0.001 µM): 75.3% | viability, T/C (second compound 0.316 µM, first compound 0.00316 µM): 57.6% | viability, T/C (second compound 0.316 µM, first compound 0.01 µM): 27.1% | viability, T/C [5]: 11.2% | viability, T/C [6]: 8.26% | viability, T/C (second compound 1 µM, first compound 0.000316 µM): 67.6% | viability, T/C (second compound 1 µM, first compound 0.001 µM): 51% | viability, T/C (second compound 1 µM, first compound 0.00316 µM): 50.2% | viability, T/C (second compound 1 µM, first compound 0.01 µM): 21.1% | viability, T/C [7]: 9.33% | viability, T/C [8]: 5.14% | viability, T/C (second compound 3.16 µM, first compound 0.000316 µM): 58.6% | viability, T/C (second compound 3.16 µM, first compound 0.001 µM): 44.2% | viability, T/C (second compound 3.16 µM, first compound 0.00316 µM): 23.4% | viability, T/C (second compound 3.16 µM, first compound 0.01 µM): 13.9% | viability, T/C (second compound 3.16 µM, first compound 0.0316 µM): 5.52% | viability, T/C (second compound 3.16 µM, first compound 0.1 µM): 3.09% | viability, T/C (second compound 10 µM, first compound 0.000316 µM): 50.9% | viability, T/C (second compound 10 µM, first compound 0.001 µM): 37.8% | viability, T/C (second compound 10 µM, first compound 0.00316 µM): 16.5% | viability, T/C (second compound 10 µM, first compound 0.01 µM): 4.6% | viability, T/C (second compound 10 µM, first compound 0.0316 µM): 2.45% | viability, T/C (second compound 10 µM, first compound 0.1 µM): 0.63%
